Patent publication US20050197350A1, “Novel quinoline, tetrahydroquinazoline, and pyrimidine derivatives and methods of treatment related to the use thereof” (TAISHO PHARMACEUTICAL CO., LTD., priority 2003, published 2005)

tested on: MCH receptors; assay: MCH receptor activity class (method not given); settings: activity class 1-3: percent of control at 10^-7 M or IC50

Structure (SMILES)	class
Cc1cccc(C)c1NC(=O)N[C@H]1CC[C@@H](Nc2nc3c(c(N(C)C)n2)CCCC3)CC1 [compound 1660]	3 (Class 3 The value of percent of control at 10^−7 M was more than 60% or the value of IC50 was more than 200 nM.)
CN(C)c1nc(N[C@H]2CC[C@@H](NC(=O)Nc3ccc(F)cc3F)CC2)nc2c1CCCC2 [compound 1661]	3 (Class 3 The value of percent of control at 10^−7 M was more than 60% or the value of IC50 was more than 200 nM.)
CCc1cccc(C)c1NC(=O)N[C@H]1CC[C@@H](Nc2nc3c(c(N(C)C)n2)CCCC3)CC1 [compound 1662]	1 (Class 1: The value of percent of control at 10^−7 M was less than 40% or the value of IC50 was less than 50 nM.)
CN(C)c1nc(N[C@H]2CC[C@@H](NC(=O)Nc3ccc(F)cc3)CC2)nc2c1CCCC2 [compound 1664]	2 (Class 2: The value of percent of control at 10^−7 M was from 40% to 60% or the value of IC′50 was from 50 nM to 200 nM.)
CSc1ccc(NC(=O)N[C@H]2CC[C@@H](Nc3nc4c(c(N(C)C)n3)CCCC4)CC2)cc1 [compound 1665]	3 (Class 3 The value of percent of control at 10^−7 M was more than 60% or the value of IC50 was more than 200 nM.)
CN(C)c1nc(N[C@H]2CC[C@@H](NC(=O)Nc3ccccc3C(F)(F)F)CC2)nc2c1CCCC2 [compound 1666]	3 (Class 3 The value of percent of control at 10^−7 M was more than 60% or the value of IC50 was more than 200 nM.)
Cc1cc(C)c(NC(=O)N[C@H]2CC[C@@H](Nc3nc4c(c(N(C)C)n3)CCCC4)CC2)c(C)c1 [compound 1667]	1 (Class 1: The value of percent of control at 10^−7 M was less than 40% or the value of IC50 was less than 50 nM.)
Cc1ccccc1NC(=O)N[C@H]1CC[C@@H](Nc2nc3c(c(N(C)C)n2)CCCC3)CC1 [compound 1668]	3 (Class 3 The value of percent of control at 10^−7 M was more than 60% or the value of IC50 was more than 200 nM.)
CN(C)c1nc(N[C@H]2CC[C@@H](NC(=O)Nc3c(Cl)cc(Cl)cc3Cl)CC2)nc2c1CCCC2 [compound 1669]	2 (Class 2: The value of percent of control at 10^−7 M was from 40% to 60% or the value of IC′50 was from 50 nM to 200 nM.)
CN(C)c1nc(N[C@H]2CC[C@@H](NC(=O)Nc3c(F)cc(Br)cc3Br)CC2)nc2c1CCCC2 [compound 1671, N-(2,4-dibromo-6-fluorophenyl)-N′-(cis-4-{[4-(dimethylamino)-5,6,7,8-tetrahydroquinazolin-2-yl]amino}cyclohexyl)urea]	2 (Class 2: The value of percent of control at 10^−7 M was from 40% to 60% or the value of IC′50 was from 50 nM to 200 nM.)
CCc1cccc(CC)c1NC(=O)N[C@H]1CC[C@@H](Nc2nc3c(c(N(C)C)n2)CCCC3)CC1 [compound 1672]	1 (Class 1: The value of percent of control at 10^−7 M was less than 40% or the value of IC50 was less than 50 nM.)
CN(C)c1nc(N[C@H]2CC[C@@H](NC(=O)Nc3c(Cl)cccc3C(F)(F)F)CC2)nc2c1CCCC2 [compound 1673]	3 (Class 3 The value of percent of control at 10^−7 M was more than 60% or the value of IC50 was more than 200 nM.)
Cc1cccc(Cl)c1NC(=O)N[C@H]1CC[C@@H](Nc2nc3c(c(N(C)C)n2)CCCC3)CC1 [compound 1674]	3 (Class 3 The value of percent of control at 10^−7 M was more than 60% or the value of IC50 was more than 200 nM.)
CN(C)c1nc(N[C@H]2CC[C@@H](NC(=O)NCc3ccccc3Cl)CC2)nc2c1CCCC2 [compound 1675, N-(2-chlorobenzyl)-N′-(cis-4-{[4-(dimethylamino)-5,6,7,8-tetrahydroquinazolin-2-yl]amino}cyclohexyl)urea]	2 (Class 2: The value of percent of control at 10^−7 M was from 40% to 60% or the value of IC′50 was from 50 nM to 200 nM.)
CCc1cccc(C(C)C)c1NC(=O)N[C@H]1CC[C@@H](Nc2nc3c(c(N(C)C)n2)CCCC3)CC1 [compound 1676]	2 (Class 2: The value of percent of control at 10^−7 M was from 40% to 60% or the value of IC′50 was from 50 nM to 200 nM.)
CCc1ccccc1NC(=O)N[C@H]1CC[C@@H](Nc2nc3c(c(N(C)C)n2)CCCC3)CC1 [compound 1677]	2 (Class 2: The value of percent of control at 10^−7 M was from 40% to 60% or the value of IC′50 was from 50 nM to 200 nM.)
CN(C)c1nc(N[C@H]2CC[C@@H](NC(=O)Nc3ccccc3I)CC2)nc2c1CCCC2 [compound 1678]	3 (Class 3 The value of percent of control at 10^−7 M was more than 60% or the value of IC50 was more than 200 nM.)
Cc1cccc(C(C)C)c1NC(=O)N[C@H]1CC[C@@H](Nc2nc3c(c(N(C)C)n2)CCCC3)CC1 [compound 1679]	2 (Class 2: The value of percent of control at 10^−7 M was from 40% to 60% or the value of IC′50 was from 50 nM to 200 nM.)
CC(C)c1ccccc1NC(=O)N[C@H]1CC[C@@H](Nc2nc3c(c(N(C)C)n2)CCCC3)CC1 [compound 1680]	3 (Class 3 The value of percent of control at 10^−7 M was more than 60% or the value of IC50 was more than 200 nM.)
Cc1c(NC(=O)N[C@H]2CC[C@@H](Nc3nc4c(c(N(C)C)n3)CCCC4)CC2)cccc1[N+](=O)[O-] [compound 1681]	3 (Class 3 The value of percent of control at 10^−7 M was more than 60% or the value of IC50 was more than 200 nM.)
CCCc1ccccc1NC(=O)N[C@H]1CC[C@@H](Nc2nc3c(c(N(C)C)n2)CCCC3)CC1 [compound 1682]	3 (Class 3 The value of percent of control at 10^−7 M was more than 60% or the value of IC50 was more than 200 nM.)
Cc1cccc(C(C)(C)C)c1NC(=O)N[C@H]1CC[C@@H](Nc2nc3c(c(N(C)C)n2)CCCC3)CC1 [compound 1683, N-(2-tert-butyl-6-methylphenyl)-N′-(cis-4-{[4-(dimethylamino)-5,6,7,8-tetrahydroquinazolin-2-yl]amino}cyclohexyl)urea]	2 (Class 2: The value of percent of control at 10^−7 M was from 40% to 60% or the value of IC′50 was from 50 nM to 200 nM.)
CN(C)c1nc(N[C@H]2CC[C@@H](NC(=O)Nc3ccccc3C(C)(C)C)CC2)nc2c1CCCC2 [compound 1684]	3 (Class 3 The value of percent of control at 10^−7 M was more than 60% or the value of IC50 was more than 200 nM.)
Cc1c(Cl)cccc1NC(=O)N[C@H]1CC[C@@H](Nc2nc3c(c(N(C)C)n2)CCCC3)CC1 [compound 1685]	3 (Class 3 The value of percent of control at 10^−7 M was more than 60% or the value of IC50 was more than 200 nM.)
CN(C)c1nc(N[C@H]2CC[C@@H](NC(=O)Nc3c(F)cc(Br)cc3F)CC2)nc2c1CCCC2 [compound 1686]	3 (Class 3 The value of percent of control at 10^−7 M was more than 60% or the value of IC50 was more than 200 nM.)
CN(C)c1nc(N[C@H]2CC[C@@H](NC(=O)Nc3ccc(Cl)cc3C(F)(F)F)CC2)nc2c1CCCC2 [compound 1687]	3 (Class 3 The value of percent of control at 10^−7 M was more than 60% or the value of IC50 was more than 200 nM.)
CN(C)c1nc(N[C@H]2CC[C@@H](NC(=O)Nc3ccc(C#N)cc3)CC2)nc2c1CCCC2 [compound 1688]	3 (Class 3 The value of percent of control at 10^−7 M was more than 60% or the value of IC50 was more than 200 nM.)
CN(C)c1nc(N[C@H]2CC[C@@H](NC(=O)NC(c3ccccc3)c3ccccc3)CC2)nc2c1CCCC2 [compound 1689]	1 (Class 1: The value of percent of control at 10^−7 M was less than 40% or the value of IC50 was less than 50 nM.)
